From paper PMC11005723, “Development of Complementary Photo‐arginine/lysine to Promote Discovery of Arg/Lys hPTMs Interactomes” (Advanced Science, 2024)

System: HEK293T nuclear lysates
Assay: SILAC‐based pull‐down proteomics H4K5me2/H4K5 (probes 7/5)
Format: binding, human
Settings: for E6 log2 (H4K5me2/H4K5): run E6; for F6 log2 (H4K5me2/H4K5): run F6

probe 7: H4K5me2 peptide probe with photo‐arginine R(dz) and K(biotin) (SGRGKGGKGLGKGGK; photo-arginine R(dz) at 3; dimethyl-lysine at 5; K(biotin) at 15)
proteins recruited (SILAC proteomics H4K5me2/H4K5) (365 nm UV 30 min, streptavidin enrichment, n = 2): could recruit L3MBTL2
E6 log2 (H4K5me2/H4K5) (protein A0A0U1RR22 PACSIN2): 0.1208
F6 log2 (H4K5me2/H4K5) (protein A0A0U1RR22 PACSIN2): -0.1109
E6 log2 (H4K5me2/H4K5) (protein A0A2R8Y855 SMARCE1): 0.07695
F6 log2 (H4K5me2/H4K5) (protein A0A2R8Y855 SMARCE1): 0.03141
E6 log2 (H4K5me2/H4K5) (protein A0A087WY61 NUMA1): 0.1401
F6 log2 (H4K5me2/H4K5) (protein A0A087WY61 NUMA1): 0.3015
E6 log2 (H4K5me2/H4K5) (protein A6NLN1 PTBP1): 0.07938
F6 log2 (H4K5me2/H4K5) (protein A6NLN1 PTBP1): -0.02591
E6 log2 (H4K5me2/H4K5) (protein B4DY09 ILF2): 0.08111
F6 log2 (H4K5me2/H4K5) (protein B4DY09 ILF2): 0.1752
E6 log2 (H4K5me2/H4K5) (protein B5MCF9 PES1): 0.1415
F6 log2 (H4K5me2/H4K5) (protein B5MCF9 PES1): 0.1164
E6 log2 (H4K5me2/H4K5) (protein E7ETZ4 BZW2): 0.1449
F6 log2 (H4K5me2/H4K5) (protein E7ETZ4 BZW2): -0.03577
E6 log2 (H4K5me2/H4K5) (protein E9PKG1 PRMT1): 0.1534
F6 log2 (H4K5me2/H4K5) (protein E9PKG1 PRMT1): 0.23
E6 log2 (H4K5me2/H4K5) (protein H7C3T4 PRDX4): 0.1102
F6 log2 (H4K5me2/H4K5) (protein H7C3T4 PRDX4): 0.1589
E6 log2 (H4K5me2/H4K5) (protein J3QR09 RPL19): 0.1467
F6 log2 (H4K5me2/H4K5) (protein J3QR09 RPL19): -0.9956
E6 log2 (H4K5me2/H4K5) (protein M0R3F6 SUGP2): 0.09539
F6 log2 (H4K5me2/H4K5) (protein M0R3F6 SUGP2): 0.1115
E6 log2 (H4K5me2/H4K5) (protein O00567 NOP56): 0.1426
F6 log2 (H4K5me2/H4K5) (protein O00567 NOP56): -0.1862
E6 log2 (H4K5me2/H4K5) (protein O14654 IRS4): 0.1705
F6 log2 (H4K5me2/H4K5) (protein O14654 IRS4): -0.09217
E6 log2 (H4K5me2/H4K5) (protein O14980 XPO1): 0.1332
F6 log2 (H4K5me2/H4K5) (protein O14980 XPO1): 0.2789
E6 log2 (H4K5me2/H4K5) (protein O43663 PRC1): 0.1243
F6 log2 (H4K5me2/H4K5) (protein O43663 PRC1): 0.05206
E6 log2 (H4K5me2/H4K5) (protein O43670 ZNF207): 0.07954
F6 log2 (H4K5me2/H4K5) (protein O43670 ZNF207): 0.2082
E6 log2 (H4K5me2/H4K5) (protein O60216 RAD21): 0.09859
F6 log2 (H4K5me2/H4K5) (protein O60216 RAD21): -0.00427
E6 log2 (H4K5me2/H4K5) (protein O60264 SMARCA5): 0.1187
F6 log2 (H4K5me2/H4K5) (protein O60264 SMARCA5): 0.0006909
E6 log2 (H4K5me2/H4K5) (protein O75717 WDHD1): 0.1724
F6 log2 (H4K5me2/H4K5) (protein O75717 WDHD1): 0.09518
E6 log2 (H4K5me2/H4K5) (protein O95218 ZRANB2): 0.07138
F6 log2 (H4K5me2/H4K5) (protein O95218 ZRANB2): 0.02934
E6 log2 (H4K5me2/H4K5) (protein O95239 KIF4A): 0.09061
F6 log2 (H4K5me2/H4K5) (protein O95239 KIF4A): 0.09527
E6 log2 (H4K5me2/H4K5) (protein P04843 RPN1): 0.0606
F6 log2 (H4K5me2/H4K5) (protein P04843 RPN1): -0.2414
E6 log2 (H4K5me2/H4K5) (protein P08107 HSPA1A): 0.1665
F6 log2 (H4K5me2/H4K5) (protein P08107 HSPA1A): 0.1744
E6 log2 (H4K5me2/H4K5) (protein P11387 TOP1): 0.0619
F6 log2 (H4K5me2/H4K5) (protein P11387 TOP1): 0.02763
E6 log2 (H4K5me2/H4K5) (protein P12081 HARS): 0.08516
F6 log2 (H4K5me2/H4K5) (protein P12081 HARS): -0.01799
E6 log2 (H4K5me2/H4K5) (protein P13010 XRCC5): 0.1114
F6 log2 (H4K5me2/H4K5) (protein P13010 XRCC5): 0.1089
E6 log2 (H4K5me2/H4K5) (protein P17028 ZNF24): 0.05262
F6 log2 (H4K5me2/H4K5) (protein P17028 ZNF24): 0.1336
E6 log2 (H4K5me2/H4K5) (protein P22314 UBA1): 0.1022
F6 log2 (H4K5me2/H4K5) (protein P22314 UBA1): 0.2143
E6 log2 (H4K5me2/H4K5) (protein P26358 DNMT1): 0.1405
F6 log2 (H4K5me2/H4K5) (protein P26358 DNMT1): 0.2161
E6 log2 (H4K5me2/H4K5) (protein P26641 EEF1G): 0.08126
F6 log2 (H4K5me2/H4K5) (protein P26641 EEF1G): 0.1297
E6 log2 (H4K5me2/H4K5) (protein P29692 EEF1D): 0.1014
F6 log2 (H4K5me2/H4K5) (protein P29692 EEF1D): -0.2527
E6 log2 (H4K5me2/H4K5) (protein P31689 DNAJA1): 0.1011
F6 log2 (H4K5me2/H4K5) (protein P31689 DNAJA1): 0.04124
E6 log2 (H4K5me2/H4K5) (protein P46109 CRKL): 0.0665
F6 log2 (H4K5me2/H4K5) (protein P46109 CRKL): -0.05223
E6 log2 (H4K5me2/H4K5) (protein P49411 TUFM): 0.1754
F6 log2 (H4K5me2/H4K5) (protein P49411 TUFM): 0.2878
E6 log2 (H4K5me2/H4K5) (protein P49792 RANBP2): 0.07412
F6 log2 (H4K5me2/H4K5) (protein P49792 RANBP2): 0.1736
E6 log2 (H4K5me2/H4K5) (protein P49915 GMPS): 0.05379
F6 log2 (H4K5me2/H4K5) (protein P49915 GMPS): 0.04262
E6 log2 (H4K5me2/H4K5) (protein P51991 HNRNPA3): 0.1036
F6 log2 (H4K5me2/H4K5) (protein P51991 HNRNPA3): 0.2517
E6 log2 (H4K5me2/H4K5) (protein P52272 HNRNPM): 0.1368
F6 log2 (H4K5me2/H4K5) (protein P52272 HNRNPM): 0.1164
E6 log2 (H4K5me2/H4K5) (protein P52597 HNRNPF): 0.1056
F6 log2 (H4K5me2/H4K5) (protein P52597 HNRNPF): 0.253
E6 log2 (H4K5me2/H4K5) (protein P52948 NUP98): 0.08442
F6 log2 (H4K5me2/H4K5) (protein P52948 NUP98): -0.03692
E6 log2 (H4K5me2/H4K5) (protein P55072 VCP): 0.1596
F6 log2 (H4K5me2/H4K5) (protein P55072 VCP): 0.3874
E6 log2 (H4K5me2/H4K5) (protein P62258 YWHAE): 0.1303
F6 log2 (H4K5me2/H4K5) (protein P62258 YWHAE): -0.03753
E6 log2 (H4K5me2/H4K5) (protein P62979 RPS27A): 0.1537
F6 log2 (H4K5me2/H4K5) (protein P62979 RPS27A): -0.5244
E6 log2 (H4K5me2/H4K5) (protein P63167 DYNLL1): 0.05641
F6 log2 (H4K5me2/H4K5) (protein P63167 DYNLL1): 0.2614
E6 log2 (H4K5me2/H4K5) (protein P67870 CSNK2B): 0.1418
F6 log2 (H4K5me2/H4K5) (protein P67870 CSNK2B): -0.3988
E6 log2 (H4K5me2/H4K5) (protein P78347 GTF2I): 0.1733
F6 log2 (H4K5me2/H4K5) (protein P78347 GTF2I): 0.08348
E6 log2 (H4K5me2/H4K5) (protein P78371 CCT2): 0.07998
F6 log2 (H4K5me2/H4K5) (protein P78371 CCT2): 0.282
E6 log2 (H4K5me2/H4K5) (protein P84103 SRSF3): 0.08043
F6 log2 (H4K5me2/H4K5) (protein P84103 SRSF3): -0.102
E6 log2 (H4K5me2/H4K5) (protein P85037 FOXK1): 0.1575
F6 log2 (H4K5me2/H4K5) (protein P85037 FOXK1): -0.07311
E6 log2 (H4K5me2/H4K5) (protein Q5SY16 NOL9): 0.1325
